Like-named read-outs stand apart in the source and are kept apart here.
Experiments:
[1] = tested on: CD-1 mice; design: method as in PMID 25769232, PMID 25987201; conditions: ED50 + SEM, data elaborated from ref [33],[34]; cited from earlier work
[2] = molecular target: T1, human CB2 receptors (Homo sapiens, UniProt P34972); design: method as in PMID 27527584, PMID 25769232; conditions: read-out: hCB2 CHO Membranes Ki; [3H]-CP-55,940 competition binding; mean ± SEM; data elaborated from ref [15],[33]; cited from earlier work
T1 construct: host or cells: CHO cells

[3] = tested on: CD-1 mice; design: method as in PMID 25769232, PMID 25987201; conditions: ED50 + SEM, data elaborated from ref [33],[34]; cited from earlier work; remark: listed apart in the source
[4] = molecular target: T2, mouse CB1 receptors (Mus musculus, UniProt P47746); design: method as in PMID 27527584, PMID 25769232; conditions: read-out: Mouse Cortex Membranes CB1 Ki; [3H]-CP-55,940 competition binding; mean ± SEM; data elaborated from ref [15],[33]; cited from earlier work
T2 construct: membranes from the mouse brain and spleen were used, respectively; from tissue

[5] = molecular target: T3, human CB1 receptors (Homo sapiens, UniProt P21554); design: method as in PMID 27527584, PMID 25769232; conditions: read-out: hCB1 CHO Cells IC50; cyclic AMP experiments; mean ± SEM; data elaborated from ref [15],[33]; cited from earlier work
T3 construct: host or cells: CHO cells

[6] = molecular target: T1, human CB2 receptors; test: [3H]-CP-55,940 competition binding, CHO cell membranes transfected with human CB2 receptors
Experimental: To obtain membranes, cells were washed with phosphate-buffered saline (PBS) and scraped off with ice-cold hypotonic buffer (5 mM Tris HCl, 2 mM EDTA, pH 7.4). The cell suspension was homogenized with a Polytron and then centrifuged for 30 min at 40,000× g. The membrane pellet was suspended in 50 mM Tris HCl buffer (pH 7.4) containing 2.5 mM ethylenediaminetetraacetic acid (EDTA), 5 mM MgCl2, and 0.5 mg/mL bovine serum albumin (BSA) for CB1 receptors or in 50 mM Tris HCl (pH 7.4), 1 mM EDTA, 5 mM MgCl2, and 0.5% BSA for CB2 receptors.
For human cannabinoid receptors, membranes obtained from CHO cells transfected with human CB1 or CB2 receptors (2 µg protein/100 µL) were used. […] Bound and free radioactivity were separated by filtering the assay mixture through Whatman GF/C glass fiber filters using a Brandel cell harvester (Brandel Instruments, Unterföhring, Germany).
The protein concentration was determined according to a Bio-Rad method with bovine serum albumin as a reference standard. Inhibitory binding constants, Ki, were calculated from the IC50 values according to the Cheng and Prusoff equation:Ki = IC50/(1 + [C*]/KD*) where [C*] is the concentration of the radioligand and KD* its dissociation constant. Functional experiments were analyzed by non-linear regression analysis using the equation for a sigmoid concentration–response curve (GraphPad Prism, San Diego, CA, USA). […]

[7] = tested on: CD-1 mice; test: Tail pinch test (acute mechanical nociception); assay type: in vivo, mouse
Experimental: The motor responses of the animal to different visual and acoustic stimuli were evaluated according to the procedure described in our previous studies. To reduce the number of animals used, mice were evaluated in functional observational tests carried out in a consecutive manner according to the following time scheme: Observation of visual object and acoustic responses and breath rate were measured at 0, 10, 30, 60, 120, 180, 240, and 300 min after injections. Visual placing response was measured at 0, 15, 35, 70, 125, 185, 245, and 305 min after injection. Core temperature was measured at 25, 45, 85, 140, 200, 260, and 320 min after injection. The tail pinch test was measured at 35, 55, 90, 145, 205, 265, and 325 min after injection, and the valuation of number of steps in the drag test was measured at 45, 75, 105, 160, 220, 280, and 340 min after injection.
The tail pinch test is used for evaluating acute mechanical nociception. A special rigid probe connected to a digital dynamometer (ZP-50N, 441-8077, Toyohashi, Aichi, Japan) was gently placed on the tail (in the distal portion), and progressive pressure was applied. When the […] flicked its tail, the pressure was stopped, and the digital instrument saved the maximum peak of weight supported (g/force). A cut-off (500 g/force) was set to avoid tissue damage. The test was repeated three times, and the final value was calculated with the average of three obtained scores.
Data are expressed in arbitrary units (visual objects and acoustic responses) and percentage of baseline (visual placing response, breath rate, and drag test). Core temperature values were expressed as the difference between control temperature (before injection) and temperature following drug administration (Δ °C). Antinociception (tail pinch tests) was calculated as percentage of maximal possible effect:EMax% = [(test − control latency)/(cut off time − control)] × 100
All data are shown as mean ± SEM of 8 independent experimental replications. […] ED50 (dose of agonist to obtain 50% of the overall mean effect) values were calculated by non-linear regression analysis of dose–response data performed using Prism software (GraphPad Prism, San Diego, CA, USA). The calculation of JWH-018 ED50 values was based on the results of previous studies. Curves have been compared, when possible, performing the F test (curve comparison). All statistical analysis was performed using the program Prism 8.0 software (GraphPad Prism, San Diego, CA, USA).

T1 sequence (P34972 whole entry): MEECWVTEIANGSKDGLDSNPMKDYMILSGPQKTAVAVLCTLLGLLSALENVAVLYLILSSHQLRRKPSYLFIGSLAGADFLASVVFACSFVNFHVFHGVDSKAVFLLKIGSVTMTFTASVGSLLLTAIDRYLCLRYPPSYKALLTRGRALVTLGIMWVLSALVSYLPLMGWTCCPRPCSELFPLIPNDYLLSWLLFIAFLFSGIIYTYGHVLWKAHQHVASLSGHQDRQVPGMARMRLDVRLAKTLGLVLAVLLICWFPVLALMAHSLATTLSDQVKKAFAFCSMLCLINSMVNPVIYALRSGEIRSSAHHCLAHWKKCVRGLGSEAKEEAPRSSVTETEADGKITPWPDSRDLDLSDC
T2 sequence (P47746 whole entry): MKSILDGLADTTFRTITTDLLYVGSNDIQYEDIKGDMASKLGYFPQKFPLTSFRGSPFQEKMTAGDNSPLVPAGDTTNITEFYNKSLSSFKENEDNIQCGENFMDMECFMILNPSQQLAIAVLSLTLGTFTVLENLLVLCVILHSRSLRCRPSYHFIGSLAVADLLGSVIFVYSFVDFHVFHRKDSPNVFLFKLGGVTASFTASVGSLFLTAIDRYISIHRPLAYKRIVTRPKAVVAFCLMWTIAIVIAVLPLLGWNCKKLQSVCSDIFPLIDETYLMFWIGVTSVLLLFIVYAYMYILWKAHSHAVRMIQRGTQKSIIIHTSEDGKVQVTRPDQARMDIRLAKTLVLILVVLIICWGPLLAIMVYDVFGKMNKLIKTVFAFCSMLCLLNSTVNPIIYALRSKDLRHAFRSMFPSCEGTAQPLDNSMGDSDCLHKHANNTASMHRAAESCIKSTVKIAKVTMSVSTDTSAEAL
T3 sequence (P21554 whole entry): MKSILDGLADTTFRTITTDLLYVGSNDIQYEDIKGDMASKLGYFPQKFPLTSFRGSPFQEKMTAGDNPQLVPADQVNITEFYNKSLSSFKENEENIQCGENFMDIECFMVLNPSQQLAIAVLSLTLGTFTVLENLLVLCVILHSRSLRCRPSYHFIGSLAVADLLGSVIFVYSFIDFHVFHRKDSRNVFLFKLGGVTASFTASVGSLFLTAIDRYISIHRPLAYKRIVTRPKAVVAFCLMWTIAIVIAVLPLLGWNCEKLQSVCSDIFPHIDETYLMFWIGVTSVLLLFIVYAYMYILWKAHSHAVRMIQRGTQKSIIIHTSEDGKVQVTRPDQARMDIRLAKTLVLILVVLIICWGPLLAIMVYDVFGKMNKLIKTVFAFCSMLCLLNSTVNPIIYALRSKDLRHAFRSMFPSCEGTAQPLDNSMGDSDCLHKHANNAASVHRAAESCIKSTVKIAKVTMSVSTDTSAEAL

| SMILES | ED50 Visual Placing [1] [mg/kg] | Ki [2] [nM] | ED50 Visual Object [3] [mg/kg] | Ki [4] [nM] | IC50 [5] [nM] | Ki [6] [nM] | effect on threshold to acute mechanical pain stimulus (tail pinch) ([7]; 0.01–30 mg/kg i.p., monitored over 5 h) | ED50 ([7]; Mus musculus, ip, mice, ED50 + SEM) [mg/kg] | lowest dose from which increased pain threshold to acute mechanical stimulus was observed ([7]; i.p.) [mg/kg] | time of maximum analgesic effect (tail pinch) ([7]; maximum dose of 30 mg/kg i.p.) [min] |
| --- | --- | --- | --- | --- | --- | --- | --- | --- | --- | --- |
| CCCCCn1cc(C(=O)c2cccc3ccccc23)c2ccccc21 [JWH-018, 1-naphthalenyl(1-pentyl-1H-indol-3-yl)-methanone] | 0.7 ± 0.06 | 8.63 ± 0.69 | 0.32 ± 0.06 | 5.82 ± 0.44 | 13.7 ± 1.04 |  |  |  |  |  |
| CCCCCn1cc(Cc2cccc3ccccc23)c2ccccc21 [JWH-175, 3-(1-naphthalenylmethyl)-1-pentyl-1H-indole] |  |  |  |  |  | 363 ± 31 | dose-dependently increased the threshold to acute mechanical pain stimulus | 4 ± 0.12 | 0.1 | 265 |

Source: paper PMC9318133 (International Journal of Molecular Sciences, 2022)
